Experimental data published in patent publication US4369191A, “Naphthalenetetrayltetrakis(sulfonylimino)-tetrabenzene di- and tricarboxylic acids” (American Cyanamid Company, priority 1981, dated 1983).
Where a name gives a salt, the structure may show the parent alone.

What was measured:
[1] = tested on: late components of human complement (C3-C9); experiment: Test Code 035 (C3-C9 inhibitor), lysis of EAC 142; format: biochemical; settings: in vitro; serial twofold dilution assay, higher well number indicates higher activity
Description: (§1) An active inhibitor protects C2 from C1 and C4; (ii) Test Code 035 (C3-C9 inhibitor)--This test determines the ability of the late components of human complement (C3-C9) to lyse EAC 142 in the presence of appropriate dilutions of the test compound. An active inhibitor protects EAC 142 from lysis by human C3-C9; (iii) Test Code 036 (C-Shunt inhibitor)--In this test human erythrocytes rendered fragile are lysed in autologous serum via the shunt pathway activated by cobra venom factor in the presence of appropriate dilutions of the test compound. Inhibition of the shunt pathway results in failure of lysis; (iv) Cap 50 Test--Here, appropriate amounts of the test compound are added to a pool of guinea pig serum in vitro, after which the undiluted serum capillary tube assay of U.S. Pat. No. 3,876,376 is run. The concentration of compound inhibiting 50% is reported; and (v) Guinea Pig Intraperitoneal Test (GPIP)--Guinea pigs weighing about 300 g are dosed intraperitoneally (i.p.) with 200 mg/kg of the test compound dissolved in saline and adjusted to pH 7-8. […] Percent inhibition is calculated by comparison with simultaneous controls. […]

activated human C1 = target: T1, activated human C1 (Homo sapiens, UniProt P09871); experiment: Test Code 026 (C1 inhibitor); format: biochemical; settings: in vitro; serial twofold dilution assay, higher well number indicates higher activity
T1 construct: fluid-phase human C2 as substrate in presence of C4
T1 sequence (P09871 16-688): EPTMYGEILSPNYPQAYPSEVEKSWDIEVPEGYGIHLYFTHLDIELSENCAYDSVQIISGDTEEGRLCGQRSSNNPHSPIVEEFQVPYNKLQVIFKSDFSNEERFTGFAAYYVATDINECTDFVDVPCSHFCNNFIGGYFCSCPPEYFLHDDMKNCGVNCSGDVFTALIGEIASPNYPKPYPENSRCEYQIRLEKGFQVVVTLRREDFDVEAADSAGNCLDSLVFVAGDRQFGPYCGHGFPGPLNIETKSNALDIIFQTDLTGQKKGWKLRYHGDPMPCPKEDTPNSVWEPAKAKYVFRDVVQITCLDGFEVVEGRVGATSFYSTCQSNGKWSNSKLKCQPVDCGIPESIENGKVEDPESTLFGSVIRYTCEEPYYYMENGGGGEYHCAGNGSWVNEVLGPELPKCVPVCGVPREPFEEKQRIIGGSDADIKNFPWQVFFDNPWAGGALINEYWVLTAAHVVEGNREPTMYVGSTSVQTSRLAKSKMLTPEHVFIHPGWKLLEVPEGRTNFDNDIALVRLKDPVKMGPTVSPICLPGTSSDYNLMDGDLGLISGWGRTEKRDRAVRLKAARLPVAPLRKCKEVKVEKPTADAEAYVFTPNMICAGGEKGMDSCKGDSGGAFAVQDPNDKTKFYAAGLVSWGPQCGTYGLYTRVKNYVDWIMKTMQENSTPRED
T1 sequence (P00736 18-705 partner): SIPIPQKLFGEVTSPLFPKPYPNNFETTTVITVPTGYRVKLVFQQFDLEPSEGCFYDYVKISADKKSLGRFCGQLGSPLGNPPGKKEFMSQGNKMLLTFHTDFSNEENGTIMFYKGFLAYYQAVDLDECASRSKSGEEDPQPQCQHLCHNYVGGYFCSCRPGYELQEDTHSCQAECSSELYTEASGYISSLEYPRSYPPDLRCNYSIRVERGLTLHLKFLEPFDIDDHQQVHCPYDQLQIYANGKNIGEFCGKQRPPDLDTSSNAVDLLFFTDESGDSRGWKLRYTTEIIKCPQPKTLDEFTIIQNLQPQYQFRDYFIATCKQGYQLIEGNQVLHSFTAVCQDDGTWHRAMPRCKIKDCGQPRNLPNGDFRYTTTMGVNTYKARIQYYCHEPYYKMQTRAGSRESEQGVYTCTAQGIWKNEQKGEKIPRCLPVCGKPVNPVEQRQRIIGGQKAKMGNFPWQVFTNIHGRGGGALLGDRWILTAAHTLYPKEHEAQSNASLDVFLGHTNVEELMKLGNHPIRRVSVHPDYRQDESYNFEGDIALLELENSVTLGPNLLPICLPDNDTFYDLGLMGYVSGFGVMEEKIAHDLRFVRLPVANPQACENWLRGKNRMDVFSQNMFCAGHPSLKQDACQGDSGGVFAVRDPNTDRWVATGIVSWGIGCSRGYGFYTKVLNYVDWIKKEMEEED
T1 sequence (P02745 23-245 partner): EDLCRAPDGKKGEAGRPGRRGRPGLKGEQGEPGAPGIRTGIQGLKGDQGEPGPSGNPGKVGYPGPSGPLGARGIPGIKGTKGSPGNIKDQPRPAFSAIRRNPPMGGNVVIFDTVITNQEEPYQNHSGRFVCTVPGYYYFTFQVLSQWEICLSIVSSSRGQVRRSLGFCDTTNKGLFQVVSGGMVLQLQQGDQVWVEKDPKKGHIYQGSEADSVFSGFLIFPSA
T1 sequence (P02746 28-253 partner): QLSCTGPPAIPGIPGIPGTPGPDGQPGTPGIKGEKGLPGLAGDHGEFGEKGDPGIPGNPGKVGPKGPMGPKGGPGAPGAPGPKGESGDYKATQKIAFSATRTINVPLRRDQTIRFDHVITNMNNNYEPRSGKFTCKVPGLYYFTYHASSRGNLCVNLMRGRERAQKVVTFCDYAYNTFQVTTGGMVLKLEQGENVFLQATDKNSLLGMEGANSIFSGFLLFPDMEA
T1 sequence (P02747 29-245 partner): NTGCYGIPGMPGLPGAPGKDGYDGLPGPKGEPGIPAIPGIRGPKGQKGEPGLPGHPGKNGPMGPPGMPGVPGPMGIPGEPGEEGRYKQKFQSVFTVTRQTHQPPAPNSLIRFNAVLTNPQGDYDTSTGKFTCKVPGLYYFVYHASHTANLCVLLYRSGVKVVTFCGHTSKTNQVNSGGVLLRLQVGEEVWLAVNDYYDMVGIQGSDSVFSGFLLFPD
Description: as §1

shunt pathway = experiment: Test Code 036 (C-Shunt inhibitor), lysis of human erythrocytes in autologous serum activated by cobra venom factor; format: cell-based; settings: in vitro; serial twofold dilution assay, higher well number indicates higher activity
Description: as §1

complement activity = experiment: Guinea Pig Intraperitoneal Test (GPIP); format: in vivo; settings: 200 mg/kg i.p.; for In vivo Activity (Guinea Pigs) % Inhibition Intraperitoneal, 30 minutes: serum complement activity 30 minutes after injection; for In vivo Activity (Guinea Pigs) % Inhibition Intraperitoneal, 60 minutes: serum complement activity 60 minutes after injection; for In vivo Activity (Guinea Pigs) % Inhibition Intraperitoneal, 120 minutes: serum complement activity 120 minutes after injection
Description: An active inhibitor protects C2 from C1 and C4; (ii) Test Code 035 (C3-C9 inhibitor)--This test determines the ability of the late components of human complement (C3-C9) to lyse EAC 142 in the presence of appropriate dilutions of the test compound. An active inhibitor protects EAC 142 from lysis by human C3-C9; (iii) Test Code 036 (C-Shunt inhibitor)--In this test human erythrocytes rendered fragile are lysed in autologous serum via the shunt pathway activated by cobra venom factor in the presence of appropriate dilutions of the test compound. Inhibition of the shunt pathway results in failure of lysis; (iv) Cap 50 Test--Here, appropriate amounts of the test compound are added to a pool of guinea pig serum in vitro, after which the undiluted serum capillary tube assay of U.S. Pat. No. 3,876,376 is run. The concentration of compound inhibiting 50% is reported; and (v) Guinea Pig Intraperitoneal Test (GPIP)--Guinea pigs weighing about 300 g are dosed intraperitoneally (i.p.) with 200 mg/kg of the test compound dissolved in saline and adjusted to pH 7-8. Approximately 0.4 ml blood samples, taken by orbital sinus puncture 30 minutes and one hour after injections, are collected directly into centrifuge tubes; 5 ml blood samples, taken by decapitation 2 hours after injection are collected directly into diSPo® beakers. The samples were allowed to clot, centrifuged, and the resultant sera were assayed for complement activity using the capillary complement assay. Percent inhibition is calculated by comparison with simultaneous controls. The results of the GPIP appear in Table I together with results of Test Code 026, 035, 036 and Cap 50.

SMILES | C-Late 035* Wells [1] [Wells] | Cl 026* Wells (activated human C1) [Wells] | C-Shunt Inhibition 036* Wells (shunt pathway) [Wells] | In vivo Activity (Guinea Pigs) % Inhibition Intraperitoneal, 30 minutes (complement activity) [%] | In vivo Activity (Guinea Pigs) % Inhibition Intraperitoneal, 60 minutes (complement activity) [%] | In vivo Activity (Guinea Pigs) % Inhibition Intraperitoneal, 120 minutes (complement activity) [%]
O=C([O-])c1cc(NS(=O)(=O)c2cc(S(=O)(=O)Nc3cc(C(=O)[O-])cc(C(=O)[O-])c3)c3cc(S(=O)(=O)Nc4cc(C(=O)[O-])cc(C(=O)[O-])c4)cc(S(=O)(=O)Nc4cc(C(=O)[O-])cc(C(=O)[O-])c4)c3c2)cc(C(=O)[O-])c1.[Na+].[Na+].[Na+].[Na+].[Na+].[Na+].[Na+].[Na+] [5,5',5",5"'-[1,3,5,7-Naphthalenetetrayltetrakis(sulfonylimino)]tetraisophthalic acid, octasodium salt] | 2 | 7 | 6 | 66 | 71 | 76
O=C(O)c1cc(NS(=O)(=O)c2cc(S(=O)(=O)Nc3cc(C(=O)O)c(C(=O)O)c(C(=O)O)c3)c3cc(S(=O)(=O)Nc4cc(C(=O)O)c(C(=O)O)c(C(=O)O)c4)cc(S(=O)(=O)Nc4cc(C(=O)O)c(C(=O)O)c(C(=O)O)c4)c3c2)cc(C(=O)O)c1C(=O)O [5,5',5",5'"-[1,3,5,7-Naphthalenetetrayltetrakis(sulfonylimino)]tetra-1,2,3-benzenetricarboxylic acid, dodecasodium salt] | 5 | 8 | 5 | 80 | 77 | 85
